{"source": "patent US20050107394A1", "about": "“Novel use of selective pde5 inhibitors” (priority 2001, published 2005)", "key": {"[1]": {"system": "patients with COPD (chronic obstructive pulmonary disease)", "assay": "6-minutes walking test in COPD patients", "assay_type": "in vivo, human", "settings": "6 months", "excerpt": "FIG. 7: Result of the 6-minutes walking test measured on 4 patients with COPD (chronic obstructive pulmonary disease). […]"}, "[2]": {"system": "patients with COPD (chronic obstructive pulmonary disease)", "assay": "Arterial oxygen saturation at rest in COPD patients", "assay_type": "in vivo, human", "parameters": "dose or concentration left out as unconfirmed", "settings": "4 COPD patients; sildenafil oral, 6 months", "protocol": "FIG. 8: Result of determination of the arterial oxygen saturation on 4 patients with COPD (chronic obstructive pulmonary disease) treated with sildenafil (75 mg/day) (oral) measured at rest over a period of 6 months. The arterial oxygen saturation in the patient improved respectively by 2%, 4%, 5% and 6%, compared with the saturation at the start of the series of measurements (time: 0 months). […]"}}, "note": "Several values for one entry are separate records, joined by “and”; a condition that tells them apart may be missing. Equal values may be shown once.", "data": [{"smiles": "CCCc1nn(C)c2c(=O)[nH]c(-c3cc(S(=O)(=O)N4CCN(C)CC4)ccc3OCC)nc12", "note": "[sildenafil, 5-[2-ethoxy-5-(4-methyl-1-piperazinyl-sulphonyl)phenyl]-1-methyl-3-n-propyl-1,6-dihydro-7H-pyrazolo[4,3-d]pyrimidin-7-one]", "values": [{"measurement": "6-minutes walking distance, improvement compared with the starting point (0 months), one value per patient", "setting": "[1]; 4 COPD patients, 75 mg sildenafil oral each day", "value": "41% and 45% and 74% and 150%"}, {"measurement": "functional capacity (6-min walking, arterial O2 saturation), words", "setting": "[1]; 4 patients, 50 mg/d sildenafil oral", "value": "marked improvement"}, {"measurement": "arterial oxygen saturation at rest, improvement compared with the start (0 months), one value per patient", "setting": "[2]", "value": "2% and 4% and 5% and 6%"}]}]}
